The target in the test is T1, IspH (LytB) (Aquifex aeolicus, UniProt O67625).
T1 sequence (O67625 1-289): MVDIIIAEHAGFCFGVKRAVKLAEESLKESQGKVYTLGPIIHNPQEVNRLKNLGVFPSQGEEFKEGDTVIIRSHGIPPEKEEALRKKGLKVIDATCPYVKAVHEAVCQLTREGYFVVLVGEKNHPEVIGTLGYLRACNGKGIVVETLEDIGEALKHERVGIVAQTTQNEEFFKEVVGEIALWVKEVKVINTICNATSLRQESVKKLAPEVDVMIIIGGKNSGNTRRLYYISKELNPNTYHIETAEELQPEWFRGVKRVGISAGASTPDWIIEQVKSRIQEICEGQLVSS
Briefly: HYSCORE/CW-EPR with […] and […]-labeled IspH. It counts as biochemical.

In the case of BPH-293 [compound 7], the IC50 (usually the concentration needed to halve the response being measured) stood at 38 µM.

For the origin of these results see PMC3092291 (2011).
